Measured values taken from paper PMC3984012 (Journal of Acquired Immune Deficiency Syndromes (1999), 2014).

Columns and labels:
[1] = Plasma BOC and TVR pharmacokinetics when coadministered with MVC; assay type: in vivo, human; conditions: coadministered with MVC 150 mg BID
[2] = cited from earlier work; for AUC8 previously reported / C8 previously reported: dosed alone, range; for Mean historical minimum plasma concentration (Cmin): historical data
OATP1B1 = conditions: read-out: OATP1B1 IC50; in vitro data; cited from earlier work
CYP3A = conditions: oral coadministration of midazolam; cited from earlier work
P-gp = conditions: cited from earlier work
CYP3A and OATP1B1 = conditions: coadministered with atorvastatin; cited from earlier work
HIV-1 = conditions: cited from earlier work

Compound | Exposures when coadministered with MVC compared with historical data [1] | AUC8 previously reported [2] | C8 previously reported [2] | Mean historical minimum plasma concentration (Cmin) [2] | IC50 (OATP1B1) | Increase in AUC of midazolam (CYP3A) | Increase in AUC of digoxin (P-gp) | Increase in AUC (exposure) of atorvastatin (CYP3A and OATP1B1) | Cavg exposure at which near maximal virologic efficacy is achieved (HIV-1)
CC(C)(C)NC(=O)N[C@H](C(=O)N1C[C@H]2[C@@H]([C@H]1C(=O)NC(CC1CCC1)C(=O)C(N)=O)C2(C)C)C(C)(C)C (some centres unmarked) [BOC, Boceprevir] | consistent with historical data | 4601 to 7070 ng·h/mL | 88.5 to 111 ng/mL | 102 ng/mL | 18 µM | 430% | 19% | 2.30 fold | 
CCC[C@H](NC(=O)[C@@H]1[C@H]2CCC[C@H]2CN1C(=O)[C@@H](NC(=O)[C@@H](NC(=O)c1cnccn1)C1CCCCC1)C(C)(C)C)C(=O)C(=O)NC1CC1 [TVR, Telaprevir] | consistent with historical data | 18157 to 22300 ng·h/mL | 1505 to 2030 ng/mL | 1802 ng/mL | 2.2 µM | 796% | 85% | 7.88 fold | 
Maraviroc [MVC] |  |  |  |  |  |  |  |  | 75–100 ng/mL
